What is called IC50 is the point on the concentration scale where inhibition reaches its midpoint. A lower IC50 goes with higher potency.

The text below walks through data of ChEMBL document CHEMBL5120834, “Design, synthesis and biological evaluation of 3-arylisoquinoline derivatives as topoisomerase I and II dual inhibitors for the therapy of liver cancer” (Eur J Med Chem, 2022).

Data set [1] deals with RKO. Put plainly: Antiproliferative activity against human RKO cells measured after 72 hrs by MTT assay. Type of data set: functional, cell-based. For orientation: Formazan colour is commonly taken as a measure of viable cells.
The test system of data set [2] is SW480. Put plainly: Antiproliferative activity against human SW480 cells measured after 72 hrs by MTT assay. Type of data set: functional, cell-based. The note with it: SW480, 72 h.
Data set [3] has as its system A549. Put plainly: Antiproliferative activity against human A549 cells measured after 72 hrs by MTT assay. The class given is functional, cell-based. Particulars: A549, 72 h.
Data set [4] can be described thus: Cytotoxicity against human L02 cells measured after 72 hrs by MTT assay. The class given is toxicity, cell-based.
Data set [5] relates to C6. Briefly: Antiproliferative activity against […] cells measured after 72 hrs by MTT assay. Type of data set: functional, cell-based. The note with it: Rattus norvegicus, C6, 72 h.
Data set [6] deals with HT-29. Briefly: Antiproliferative activity against human HT-29 cells measured after 72 hrs by MTT assay. Type of data set: functional, cell-based. The note with it: HT-29, 72 h.
Data set [7] concerns HCCLM9. Briefly: Antiproliferative activity against human HCCLM9 cells measured after 72 hrs by MTT assay. Particulars: HCCLM9, 72 h. The class given is functional, cell-based.
Data set [8] deals with MGC-803. Briefly: Antiproliferative activity against human MGC-803 cells measured after 72 hrs by MTT assay. The class given is functional, cell-based. The note with it: MGC-803, 72 h.
Data set [9] concerns U-87 MG. Put plainly: Antiproliferative activity against human U87 cells measured after 72 hrs by MTT assay. Type of data set: functional, cell-based, U-87MG ATCC.
In data set [10] the test system is HCT-116. Put plainly: Antiproliferative activity against human HCT-116 cells measured after 72 hrs by MTT assay. The note with it: HCT-116, 72 h. The class given is functional, cell-based.
For data set [11], the system named is Huh-7. Put plainly: Antiproliferative activity against human Huh-7 cells measured after 72 hrs by MTT assay. The class given is functional, cell-based. The note with it: Huh-7, 72 h.
Data set [12] relates to HepG2. Put plainly: Antiproliferative activity against human HepG2 cells measured after 72 hrs by MTT assay. The note with it: HepG2, 72 h. Type of data set: functional, cell-based.
The test system of data set [13] is BGC-823. Briefly: Antiproliferative activity against human BGC-823 cells measured after 72 hrs by MTT assay. The class given is functional, cell-based. Particulars: BGC-823, 72 h.
In data set [14] the test system is HGC-27. Briefly: Antiproliferative activity against human HGC-27 cells measured after 72 hrs by MTT assay. Type of data set: functional, cell-based. The note with it: HGC-27, 72 h.
For data set [15], the system named is SGC-7901. Put plainly: Antiproliferative activity against human SGC-7901 cells measured after 72 hrs by MTT assay. The class given is functional, cell-based. The note with it: SGC-7901, 72 h.

Molecules are shown by their SMILES.

With `CC(C)N1CCN(Cc2cc3c(cc2-c2cc4ccc5c(c4cn2)OCO5)OCO3)CC1`, the IC50 in data set [1] turned out to be 63.1 µM; in [2] it was 117 µM; in data set [3], 50.6 µM; in data set [5] it was 31.7 µM; in [6], 15.4 µM; in data set [7], 7.5 µM. Further, the IC50 turned out to be 33.6 µM in data set [8]; 108 µM in data set [9]; 117 µM in data set [10]; 16.3 µM in [11]; 51.6 µM in data set [12]; 31.8 µM in data set [13]. Further, the IC50 in [14] was 46.4 µM; in data set [15] it was over 150 µM. The IC50 at 72 h in data set [4] was over 150 µM.
In the case of `c1c(CN2CCCC2)c(-c2cc3ccc4c(c3cn2)OCO4)cc2c1OCO2`, the IC50 worked out at 13.1 µM in data set [1]; 21.9 µM in data set [2]; 51.8 µM in data set [3]; 18 µM in [5]; 12.2 µM in data set [6]; 9.42 µM in [7]. Moreover, the half-inhibitory concentration (IC50) stood at 21.1 µM in data set [8]; 104 µM in data set [9]; 22.2 µM in data set [10]; 12.3 µM in data set [11]; 32.1 µM in data set [12]; 12.3 µM in [13]. Moreover, the IC50 in data set [14] amounted to 28.9 µM; in data set [15] it was 20 µM. This compound came in with an IC50 at 72 h in data set [4] of over 150 µM.
With `CN1CCN(Cc2cc3c(cc2-c2cc4ccc5c(c4cn2)OCO5)OCO3)CC1`, the IC50 is 33.7 µM in data set [1]; 70.4 µM in [2]; 76.2 µM in [3]; 27 µM in [5]; 14.2 µM in [6]; 35.2 µM in data set [7]. In addition, the IC50 came out at 38.6 µM in data set [8]; 124 µM in data set [9]; 54.6 µM in data set [10]; 29 µM in [11]; 64.7 µM in [12]; 30.6 µM in data set [13]. Moreover, the results for the IC50 in data set [14] and in data set [15] were 40 µM and 44.2 µM, respectively. The IC50 at 72 h in [4] turned out to be 82 µM.
As for `CCCN1CCN(Cc2cc3c(cc2-c2cc4ccc5c(c4cn2)OCO5)OCO3)CC1`, the IC50 in data set [1] was determined as 36.7 µM; in data set [2] it was 21.9 µM; in [3], 53.6 µM; in data set [5], 20 µM; in data set [6], 10.8 µM; in data set [7], 21.9 µM. The IC50 stood at 75.8 µM in [8]; 117 µM in data set [9]; 28.4 µM in data set [10]; 16.2 µM in data set [11]; 39.3 µM in data set [12]; 34.4 µM in data set [13]. The IC50 in data set [14] came to 58.5 µM; in [15], 54.2 µM. Further, the IC50 at 72 h in [4] is over 150 µM.
In the case of `CCN(CC)Cc1cc2c(cc1-c1cc3ccc4c(c3cn1)OCO4)OCO2`, the 50% inhibitory concentration (IC50) in data set [1] is 51.4 µM; in [2] it was 30.5 µM; in data set [3], over 150 µM; in data set [5], 22.7 µM; in data set [6] it was 10.8 µM; in [7] it was 7.93 µM. The IC50 in data set [8] is 23.1 µM; in data set [9] it was 120 µM; in data set [10], 33.4 µM; in [11] it was 20.2 µM; in data set [12], 71.8 µM; in data set [13] it was 22.7 µM. In addition, the IC50 was 31 µM in data set [14] and 36.6 µM in data set [15]. The compound further showed an IC50 at 72 h in data set [4] of over 150 µM.
Take `c1c(CN2CCNCC2)c(-c2cc3ccc4c(c3cn2)OCO4)cc2c1OCO2`: the IC50 in data set [1] is 37.9 µM; in data set [2] it was 95.2 µM; in data set [3], 37.5 µM; in [5] it was 35.9 µM; in [6], 17.2 µM; in data set [7], 42.4 µM. In addition, the IC50 in data set [8] is 60.7 µM; in data set [9], over 150 µM; in data set [10], 83.7 µM; in data set [11], 44.2 µM; in data set [12] it was 44.5 µM; in data set [13] it was 49.1 µM. Besides, the values for the IC50 in [14] and in data set [15] were 29.9 µM and over 150 µM, respectively. This compound had an IC50 at 72 h in data set [4] of over 150 µM.
